Laboratory results as given in patent publication US20250360160A1, “NEW MEDICAL USE OF TAFOXIPARIN” (DILAFOR AB, priority 2022, published 2025).

System: term pregnant, nulliparous women with an unripe cervix
Experiment: Clinical phase II trial PPL17 (Parts A and B), subcutaneous tafoxiparin vs placebo
Assay type: in vivo, human
Details: for proportion of women achieving spontaneous onset of labor: placebo 28.7%, FIG. 1; for Labor induced, number of subjects: onset of labor with intervention; for Labor induced with PGE-1, percent of subjects: placebo 10.2%; for Labor induced with amniotomy, percent of subjects: placebo 56.8%; for Labor induction with Balloon catheter, percent of subjects: placebo 58.0%; for Labor induced, percent of subjects: placebo 70.5%
Description: A clinical phase II trial is performed as a randomized, double-blind, placebo-controlled, parallel-group proof of concept study (Part A) with a conditional dose finding follow up study (Part B) to evaluate the efficacy, safety, tolerability and dose response of subcutaneously administered tafoxiparin as a supplement to induction therapy in term pregnant, nulliparous women with an unripe cervix. The study is performed in Sweden and Finland (PPL17), and an EMA (European Medicines Agency) description of the study can be found on the EU Clinical Trials Register web (www.clinicaltrialsregister.eu/ctr-search/search?query=PPL17).
A total of 170 term pregnant women are randomized to receive either 300 mg of tafoxiparin, or corresponding placebo (vehicle), administered subcutaneously every 24±3 hours and up to a total of 7 doses, or until partus (Part A).
In the dose finding follow up study (Part B), a total of 164 term pregnant women are randomized to receive either 75 or 150 mg of tafoxiparin administered subcutaneously every 24±3 hours […] and up to a total of 7 doses, or until partus.
To assess the efficacy of tafoxiparin on cervical ripening/cervical ripening rate, during and up to the first seven days of treatment, measured by Bishop score. All women must be examined to check the cervical state before enrollment.
Time from start of treatment to increase in Bishop score of ≥2 points or spontaneous onset of labor, whichever comes first. Time from start of treatment to increase in Bishop score of ≥3 points or spontaneous onset of labor, whichever comes first. Time from start of treatment to increase in Bishop score of ≥4 points or spontaneous onset of labor, whichever comes first.
Cervical ripening as measured by change from baseline to end of treatment in Bishop Score. Time from onset of labor to partus, where onset of labor is defined as last record of 4 cm cervical dilatation visualized in the partogram and progress of labor, or last record of 4 cm of cervical dilatation in combination with amniotomy and intravenous administration oxytocin.
Proportion of women with spontaneous onset of labor (Response group I).
Tafoxiparin/Placebo is supplied by Dilafor AB to the site as kits designed to constitute 300 mg of tafoxiparin or placebo for daily administration. Apart from the active substance, each ml of study drug will constitute 0.015 M phosphate buffer. The study medication kit for each patient will contain 8 doses consisting of 2 vials containing a minimum extractable volume of 1.6 ml of 150 mg/ml of tafoxiparin or placebo. One dose is a reserve dose in case a dose is rendered unusable. The investigational product should be administered subcutaneously every 24±3hours by the site staff for up to 7 doses, or until partus. At each dosing time 1.0 ml of the drug will be extracted from each of the 2 vials and injected as separate s.c. injections in the abdominal or hip region.
Tafoxiparin/Placebo is supplied by Dilafor AB to the site as kits designed to constitute 75 or 150 mg of tafoxiparin for daily administration. Apart from the active substance, each ml of study drug will constitute 0.015 M phosphate buffer. The study medication kit for each patient will contain 8 doses consisting of 2 vials for each injection occasion containing a minimum extractable volume of 1.6 ml of 150 mg/ml of tafoxiparin or placebo. For subjects receiving 75 mg of tafoxiparin, one vial will contain active substance and one containing placebo. For subjects receiving 150 mg of tafoxiparin, both vials will contain active substance. One dose is a reserve dose in case a dose is rendered unusable. The investigational product should be administered subcutaneously every 24±3 hours by the site staff for up to 7 doses, or until partus. At each dosing time, 0.5 ml of the drug will be extracted from each of the 2 vials and injected as separate s.c. injections in the abdominal or hip region. […]

[1] = 75 mg, n = 83, listed as tafoxiparin

tafoxiparin
proportion of women achieving spontaneous onset of labor (75 mg daily s.c., of 82 women, p 0.102): 40.2% | number of subjects (women) that reach spontaneous onset of labor (75 mg, Study day 1, n=33): 0 | percent of subjects (women) that reach spontaneous onset of labor (75 mg, Study day 1, n=33): (0%) | number of subjects (women) that reach spontaneous onset of labor (75 mg, Study day 2, n=33): 3 | percent of subjects (women) that reach spontaneous onset of labor (75 mg, Study day 2, n=33): (9%) | number of subjects (women) that reach spontaneous onset of labor (75 mg, Study day 3, n=33): 6 | percent of subjects (women) that reach spontaneous onset of labor (75 mg, Study day 3, n=33): (18%) | number of subjects (women) that reach spontaneous onset of labor (75 mg, Study day 4, n=33): 11 | percent of subjects (women) that reach spontaneous onset of labor (75 mg, Study day 4, n=33): (33%) | number of subjects (women) that reach spontaneous onset of labor (75 mg, Study day 5, n=33): 22 | percent of subjects (women) that reach spontaneous onset of labor (75 mg, Study day 5, n=33): (67%) | number of subjects (women) that reach spontaneous onset of labor (75 mg, Study day 6, n=33): 25 | percent of subjects (women) that reach spontaneous onset of labor (75 mg, Study day 6, n=33): (76%) | number of subjects (women) that reach spontaneous onset of labor (75 mg, Study day 7, n=33): 32 | percent of subjects (women) that reach spontaneous onset of labor (75 mg, Study day 7, n=33): (97%) | number of subjects (women) that reach spontaneous onset of labor (75 mg, Study day 8, n=33): 33 | percent of subjects (women) that reach spontaneous onset of labor (75 mg, Study day 8, n=33): (100%) | Fetal distress as indication for operative delivery (ODFD), number of patients (75 mg, n = 83): 16 | Labor induced with PGE-1, number of subjects (75 mg, n = 83): 7 | Labor induced with amniotomy, number of subjects (75 mg, n = 83): 46 | Labor induced with oxytocin, number of subjects (75 mg, n = 83): 34 | Labor induction with Balloon catheter, number of subjects (75 mg, n = 83): 35 | Labor induced, number of subjects (75 mg, n = 83): 48 | Labor induced with PGE-1, percent of subjects (75 mg, n = 83): (8.4%) | Labor induced with PGE-1, percent of subjects [1]: 8.4% | Fetal distress as indication for operative delivery (ODFD), percent of patients (75 mg, n = 83, placebo 22.7%): 19.3% | Percent of patients with operative delivery (75 mg, n = 83, placebo 45.5%): 38.6% | Labor induced with oxytocin, percent of subjects (75 mg, n = 83, placebo 54.5%): (41.0%) | Labor induced with oxytocin, percent of subjects (75 mg, n = 83, placebo 54.5%, listed as tafoxiparin): 41.0% | Labor induced with amniotomy, percent of subjects (75 mg, n = 83): (55.4%) | Labor induced with amniotomy, percent of subjects [1]: 55.4% | Labor induction with Balloon catheter, percent of subjects (75 mg, n = 83): (42.2%) | Labor induction with Balloon catheter, percent of subjects [1]: 42.2% | Labor induced, percent of subjects (75 mg, n = 83): (57.8%) | Labor induced, percent of subjects [1]: 57.8% | number of women reaching spontaneous onset of labor with uncomplicated delivery (75 mg, of 29 women): 22 women | proportion of women reaching spontaneous onset of labor with uncomplicated delivery (75 mg, of 29 women, placebo 54.5%): 75.9% | number of women needing instrumental delivery or caesarian section to reach partus (75 mg, of 33 women): 11 women | number reaching partus by vaginal delivery with no need for instrumental delivery nor caesarian section (75 mg, of 33 women): 22 women | number of women achieving spontaneous onset of labor (75 mg, of 82 women): 33 women | number of women needing instrumental delivery (75 mg, spontaneous onset of labor, of 29 women): 7 women | proportion reaching partus by vaginal delivery with no need for instrumental delivery nor caesarian section (75 mg, women with spontaneous onset of labor, of 33, placebo 48%, FIG. 5): 66.7% | proportion of women needing instrumental delivery or caesarian section to reach partus (75 mg, women with spontaneous onset of labor, of 33, placebo 52%, FIG. 5): 33.3% | proportion of women needing instrumental delivery (75 mg, women with spontaneous onset of labor, vaginal mode of partus, of 29, p=0.181, placebo 45.5%, FIG. 4): 24.1% | proportion of women achieving spontaneous onset of labor (150 mg daily s.c., of 85 women, p 0.039): 42.4% | number of subjects (women) that reach spontaneous onset of labor (150 mg, Study day 1, n=36): 0 | percent of subjects (women) that reach spontaneous onset of labor (150 mg, Study day 1, n=36): (0%) | number of subjects (women) that reach spontaneous onset of labor (150 mg, Study day 2, n=36): 4 | percent of subjects (women) that reach spontaneous onset of labor (150 mg, Study day 2, n=36): (11%) | number of subjects (women) that reach spontaneous onset of labor (150 mg, Study day 3, n=36): 15 | percent of subjects (women) that reach spontaneous onset of labor (150 mg, Study day 3, n=36): (42%) | number of subjects (women) that reach spontaneous onset of labor (150 mg, Study day 4, n=36): 19 | percent of subjects (women) that reach spontaneous onset of labor (150 mg, Study day 4, n=36): (53%) | number of subjects (women) that reach spontaneous onset of labor (150 mg, Study day 5, n=36): 26 | percent of subjects (women) that reach spontaneous onset of labor (150 mg, Study day 5, n=36): (72%) | number of subjects (women) that reach spontaneous onset of labor (150 mg, Study day 6, n=36): 30 | percent of subjects (women) that reach spontaneous onset of labor (150 mg, Study day 6, n=36): (83%) | number of subjects (women) that reach spontaneous onset of labor (150 mg, Study day 7, n=36): 34 | percent of subjects (women) that reach spontaneous onset of labor (150 mg, Study day 7, n=36): (94%) | number of subjects (women) that reach spontaneous onset of labor (150 mg, Study day 8, n=36): 35 | percent of subjects (women) that reach spontaneous onset of labor (150 mg, Study day 8, n=36): (97%) | number of subjects (women) that reach spontaneous onset of labor (150 mg, Study day 9, n=36): 36 | percent of subjects (women) that reach spontaneous onset of labor (150 mg, Study day 9, n=36): (100%) | Fetal distress as indication for operative delivery (ODFD), number of patients (150 mg, n = 85): 20 | Labor induced with PGE-1, number of subjects (150 mg, n = 85): 7 | Labor induced with amniotomy, number of subjects (150 mg, n = 85): 39 | Labor induced with oxytocin, number of subjects (150 mg, n = 85): 38 | Labor induction with Balloon catheter, number of subjects (150 mg, n = 85): 37 | Labor induced, number of subjects (150 mg, n = 85): 48 | Labor induced with PGE-1, percent of subjects (150 mg, n = 85): (8.2%)
